The subject of series [1] is SARS-CoV-2 (isolate Wuhan-Hu-1). Kind of series: microbe, parasite or virus in culture. Format: cell-based. As to conditions: for IC50: Severe acute respiratory syndrome coronavirus 2, Vero C1008, 24 h, read-out: IC50 (half-maximal inhibitory concentration), anti-SARS-CoV-2 activity.
Series [2] in a line: in vitro. As to conditions: African green monkey.
Series [3] is described as follows: in vitro. Particulars: human.
In the next series the test system is CXCL-10. In kind it is cell-based, human.
A further series relates to IL-1β. Format: cell-based, human.
The test system of the next series is SARS-CoV-2 S PsV. The series can be described thus: microbe, parasite or virus in culture. In kind it is cell-based.
Series [4] concerns SARS-CoV-2 S protein-mediated cell-cell fusion. In kind it is cell-based.
A further series relates to IL-6. In kind it is cell-based, human.
In a further series the test system is 3 C-like protease. As to conditions: cited from earlier work.
The test system of another series is papain-like protease. As to conditions: cited from earlier work.

`COc1ccc([C@@H]2CC(=O)c3c(O)cc(O)cc3O2)cc1O` [HE, Hesperetin]: the “SI: selectivity index as CC50/IC50” value in [1] is on record as greater than 4.00. In addition, the IC50 in series [1] was 50 ± 0.66 µM. Further, the values for the CC50 in the series “in vitro [2]” and in “in vitro [3]” were greater than 200 µM and greater than 400 µM, respectively.
As for `O=C(/C=C/c1ccc(O)cc1)c1ccc(O)cc1O` [IS, Isoliquiritigenin], the “release of CXCL-10 from THP-1 cells” value with CXCL-10 is “inhibited the release of both CXCL-10 and IL-1β”. In addition, the “release of IL-1β from THP-1 cells” value with IL-1β is “inhibited the release of both CXCL-10 and IL-1β”.
With `O=c1cc(-c2ccc(O)c(O)c2)oc2cc(O)cc(O)c12` [LU, Luteolin], the “release of CXCL-10 from THP-1 cells” value in the series on CXCL-10 was “inhibited the release of CXCL-10”.
`O=C1C[C@@H](c2ccc(O)cc2)Oc2cc(O)cc(O)c21` [NA, Naringenin]: the “release of CXCL-10 from THP-1 cells” value in the series with CXCL-10 is “inhibited the release of CXCL-10”.
Turning to `COc1c(O)cc2oc(-c3ccccc3)cc(=O)c2c1O` [OA, Oroxylin A], in series [1], the “SI: selectivity index as CC50/IC50” value was greater than 6.37. Moreover, the IC50 was 31.39 ± 0.07 µM in series [1] and 15 ± 1.46 µM with SARS-CoV-2 S PsV (Severe acute respiratory syndrome coronavirus 2, read-out: IC50 against SARS-CoV-2 S PsV infection). Besides, the “SARS-CoV-2 S protein-mediated cell-cell fusion (syncytium formation)” value in [4] is on record as “significantly inhibited”. Moreover, in the series on CXCL-10, the “release of CXCL-10 from THP-1 cells” value is “inhibited the release of both CXCL-10 and IL-1β”. The “release of IL-1β from THP-1 cells” value in the series with IL-1β is “inhibited the release of both CXCL-10 and IL-1β”. The CC50 in “in vitro [2]” is greater than 200 µM; in the series “in vitro [3]”, greater than 400 µM.
Consider `Oc1ccc(/C=C/c2cc(O)cc(O)c2)cc1` [RE, Resveratrol], for which the “release of IL-1β from THP-1 cells” value in the series on IL-1β was “inhibited the release of IL-1β”.
As for `O=C(O)[C@H]1O[C@@H](Oc2cc3oc(-c4ccc(O)cc4)cc(=O)c3c(O)c2O)[C@H](O)[C@@H](O)[C@@H]1O` [SC, Scutellarin], in series [1], the “SI: selectivity index as CC50/IC50” value is greater than 8.90 and the IC50 came to 22.47 ± 0.19 µM. Besides, the “inhibitory activity against entry of SARS-CoV-2 S PsV (in words)” value in the series on SARS-CoV-2 S PsV is recorded as “inhibits neither the entry of SARS-CoV-2 S PsV”. The “release of IL-6 from THP-1 cells” value in the series with IL-6 was “except SC”. In the series with 3 C-like protease, the “inhibition of 3 C-like protease activity” value was “nor the activity of 3 C-like protease and papain-like protease”. For the same compound, in the series on papain-like protease, the “inhibition of papain-like protease activity” value was “nor the activity of 3 C-like protease and papain-like protease”. In the series “in vitro [2]”, this compound gave a CC50 greater than 200 µM. In “in vitro [3]”, this compound came in with a CC50 greater than 400 µM.
For the compound `COc1c(O)cc2occ(-c3ccc(O)cc3)c(=O)c2c1O` [TE, Tectorigenin], the “inhibition of SARS-CoV-2 infection” value in series [1] is recorded as “approximately 48.31%”. Besides, the “release of CXCL-10 from THP-1 cells” value in the series with CXCL-10 was “inhibited the release of both CXCL-10 and IL-1β”. The “release of IL-1β from THP-1 cells” value in the series on IL-1β was “inhibited the release of both CXCL-10 and IL-1β”.

The record behind these values is publication PMC9618446 (Biomedicine & Pharmacotherapy, 2022).
